Reference: patent publication US7687484B2, “Transporter enhanced corticosteroid activity” (priority 2006, dated 2010)
Like-named read-outs stand apart in the source and are kept apart here.

Legend:
[1] = target: T1, glucocorticoid receptor (Homo sapiens, UniProt P04150); assay: Relative binding affinity for the glucocorticoid receptor (GCR/GR); conditions: GRs were calculated from RBAs; read-out: GR Est. IC50
T1 sequence (P04150 1-777): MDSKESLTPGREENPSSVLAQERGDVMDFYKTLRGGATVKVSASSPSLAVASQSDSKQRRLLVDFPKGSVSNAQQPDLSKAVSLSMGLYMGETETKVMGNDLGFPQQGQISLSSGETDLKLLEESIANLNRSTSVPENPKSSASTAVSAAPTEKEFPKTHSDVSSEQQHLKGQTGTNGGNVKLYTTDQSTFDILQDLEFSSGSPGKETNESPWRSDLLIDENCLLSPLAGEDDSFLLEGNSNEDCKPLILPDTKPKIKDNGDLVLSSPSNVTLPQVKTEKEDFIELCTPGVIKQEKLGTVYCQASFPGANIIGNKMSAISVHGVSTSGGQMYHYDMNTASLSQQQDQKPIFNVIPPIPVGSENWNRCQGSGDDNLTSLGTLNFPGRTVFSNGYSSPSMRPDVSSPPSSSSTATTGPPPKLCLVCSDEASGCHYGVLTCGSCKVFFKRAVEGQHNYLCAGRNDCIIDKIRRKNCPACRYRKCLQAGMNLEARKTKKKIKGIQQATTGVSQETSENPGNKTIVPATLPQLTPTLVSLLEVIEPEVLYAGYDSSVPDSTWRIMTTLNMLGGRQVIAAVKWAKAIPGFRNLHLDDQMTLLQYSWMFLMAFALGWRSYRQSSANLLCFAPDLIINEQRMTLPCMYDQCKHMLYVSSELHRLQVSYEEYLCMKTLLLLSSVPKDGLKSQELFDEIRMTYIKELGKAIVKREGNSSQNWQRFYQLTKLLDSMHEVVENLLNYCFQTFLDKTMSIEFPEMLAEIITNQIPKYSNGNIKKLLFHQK

[2] = target: T2, transcortin (CBG) (Homo sapiens, UniProt P08185); assay: Binding of corticosteroids to transcortin: 3H-cortisol competition in charcoal-treated diluted plasma
T2 construct: from tissue; host or cells: plasma from venous blood of healthy volunteers, charcoal-treated, diluted 100-fold
T2 sequence (P08185 23-405): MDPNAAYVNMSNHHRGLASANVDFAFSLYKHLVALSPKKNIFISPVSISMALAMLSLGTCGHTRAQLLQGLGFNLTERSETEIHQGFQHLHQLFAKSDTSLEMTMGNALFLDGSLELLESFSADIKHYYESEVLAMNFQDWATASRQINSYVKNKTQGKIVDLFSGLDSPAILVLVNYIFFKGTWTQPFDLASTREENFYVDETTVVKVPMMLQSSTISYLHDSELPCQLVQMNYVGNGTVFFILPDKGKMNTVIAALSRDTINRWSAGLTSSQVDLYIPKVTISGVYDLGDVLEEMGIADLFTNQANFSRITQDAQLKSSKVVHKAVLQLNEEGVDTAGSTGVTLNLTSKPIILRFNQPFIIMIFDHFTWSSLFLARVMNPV
Experimental: Experimental procedure: Venous blood was collected from healthy volunteers into heparin-containing tubes (5 Us/100 ml serum) and cells were separated from plasma by centrifugation (1500 g for 15 min). […] Charcoal-treated plasma was diluted 100-fold with binding buffer (10 mM Tris-HCl; 2 mM DTT (dithiotreitol); 1.5 mM EDTA; 0.02 M Na2MoO4; 10% Glycerol; pH 7.4) and was stored aliquoted at −80° C. […] The assay ingredients were mixed and the tubes were incubated for 1 hour on ice. At the end of the incubation, 0.2 ml of charcoal suspension (0.5% Norit A and 0.05% BSA) was added to each tube. The tubes were briefly agitated and incubated for an additional 10 min at 0° C. They were then centrifuged for 10 min at 15 000 g, and the same aliquots from the clear supernatants were quantitatively decanted into counting vials and combined with 3 ml of toluene-based scintillation fluid. […] Specific binding and IC50-values were calculated.

[3] = test system: forearms of human volunteers; assay: Human vasoconstriction (blanching) testing; format: in vivo; design: key to Vasoconstriction activity (total score of 4 tests): sum of 4 tests, each 0 = normal skin to 4 = very intense pallor
Experimental: Solutions of LE, HC and PRN (0.1 or 1 mM) alone, or mixtures of LE and HC (0.1+0.1 mM, or 1+1 mM), or LE and PRN (0.1+0.1 mM, or 1+1 mM) were prepared with a vehicle containing absolute ethanol and propylene glycol (9:1). […] After evaporation of ethanol (20 min), the films were applied to the forearms of human volunteers for 4 hours. Subsequently, the vasoconstriction reaction was read and judged by the appearance of pallor at various time intervals after the removal of the discs and films. The grading scale was as follows: 0, normal skin; 1, slight pallor; 2, pallor with at least two corners outlined; 3, even pallor with a clear outlined of the application sites; 4, very intense pallor. Due to the relatively high variations in response between the volunteers, a total score of 4 tests at each time point was taken for the activity evaluation.

[4] = target: T1, glucocorticoid receptor; conditions: cited from earlier work
[5] = anti-inflammatory activity, LE vs hydrocortisone; cited from earlier work
[6] = logP reported in literature; cited from earlier work

CCOC(=O)O[C@]1(C(=O)OCCl)CC[C@H]2[C@@H]3CCC4=CC(=O)C=C[C@]4(C)[C@H]3[C@@H](O)C[C@@]21C [Loteprednol etabonate, chloromethyl 17α-ethoxycarbonyloxy-11β-hydroxyandrosta-1,4-dien-3-one-17β-carboxylate]
IC50 [1]: 4 nM
IC50 ([2]; 3 nM 3H-cortisol, 1 hour on ice, plasma diluted 100-fold, read-out: IC50-values (nM) average ± SEM (n)): 272 ± 27 nM
IC50 ([2]; estimated, unpublished results Bodor, Kurucz 2006, read-out: CBG Est. IC50): 270 nM
Vasoconstriction activity (total score of 4 tests) ([3]; 0.1 mM, 2 hr after removal, 4 h application): 2
Vasoconstriction activity (total score of 4 tests) ([3]; 0.1 mM, 4 hr after removal): 3
Vasoconstriction activity (total score of 4 tests) ([3]; 0.1 mM, 6 hr after removal): 5
Vasoconstriction activity (total score of 4 tests) ([3]; 0.1 mM, 8 hr after removal): 5
Vasoconstriction activity (total score of 4 tests) ([3]; 0.1 mM, 10 hr after removal): 3
Vasoconstriction activity (total score of 4 tests) ([3]; 0.1 mM, 16 hr after removal): 1
Vasoconstriction activity (total score of 4 tests) ([3]; 0.1 mM, 18 hr after removal): 1
Vasoconstriction activity (total score of 4 tests) ([3]; 0.1 mM, 24 hr after removal): 1
Vasoconstriction activity (total score of 4 tests) ([3]; 1 mM, 2 hr after removal, 4 h application): 6
Vasoconstriction activity (total score of 4 tests) ([3]; 1 mM, 4 hr after removal): 7
Vasoconstriction activity (total score of 4 tests) ([3]; 1 mM, 6 hr after removal): 8
Vasoconstriction activity (total score of 4 tests) ([3]; 1 mM, 8 hr after removal): 8
Vasoconstriction activity (total score of 4 tests) ([3]; 1 mM, 10 hr after removal): 9
Vasoconstriction activity (total score of 4 tests) ([3]; 1 mM, 16 hr after removal): 6
Vasoconstriction activity (total score of 4 tests) ([3]; 1 mM, 18 hr after removal): 5
Vasoconstriction activity (total score of 4 tests) ([3]; 1 mM, 24 hr after removal): 2
Vasoconstriction activity alone (in words) ([3]; by itself, concentration range 0.1 to 1 mM, human skin): good vasoconstriction activity
Increase of vasoconstriction activity of LE by addition of the same amount of HC or PRN ([3]; co-administration of 0.1 mM HC or PRN): 60-80%
Increase of vasoconstriction activity of LE by addition of the same amount of HC or PRN ([3]; co-administration of 1 mM HC or PRN): 60-75%
Intrinsic activity in in vitro receptor binding studies (in words) ([4]; Druzgala et al. 1991, [3H]-triamcinolone acetonide tracer, 10^−5M cortienic acid as competitor): intrinsically active
rBA (relative receptor binding affinity) ([4]; relative to dexamethasone = 100, average of all values if multiple available): 150
Activity relative to hydrocortisone [5]: approximately 20 times
logP [6]: 3.03
